Data on 13 compounds can be found in PubChem BioAssay AID328 (DTP/NCI, 2004).

The experiment concerns BDF1 mice, P388 leukemia ip, median survival T/C. The experiment in a line: NCI In Vivo Anticancer Drug Screen. Data for tumor model P388 Leukemia (intraperitoneal) in B6D2F1 (BDF1) mice. The settings on record: endpoint: median survival time, higher = longer survival. The method in brief: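 In tumour-bearing mice, survival after compound treatment is set against the vehicle group and given as a quotient.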

[1] abbreviates: dose: 40.0 mg/kg/injection, schedule: Q04DX003 (ip), vehicle: saline with Tween-80.
Setting [2] is: dose: 12.5 mg/kg/injection, schedule: Q04DX003 (ip), vehicle: saline.
The mark [3] stands for this setting: dose: 100.0 mg/kg/injection, schedule: Q04DX003 (ip), vehicle: saline.
Setting [4] is: dose: 200.0 mg/kg/injection, schedule: Q04DX003 (ip), vehicle: saline.
The mark [5] stands for this setting: dose: 400.0 mg/kg/injection, schedule: Q04DX003 (ip), vehicle: saline.

The structures appear in SMILES notation. Several values for one entry are separate records, joined by “and”; a condition that tells them apart may be missing. Equal entries are not always repeated. Inconclusive results and toxic doses are left out.

Consider `O=C1NC(Cc2ccc(N(CCCl)CCCl)cc2)C(=O)O1` (centres undefined), for which the T/C reads like this: (dose: 0.06 mg/kg/injection, schedule: Q01DX009 (ip), vehicle: saline with Tween-80) 104 % of control; (dose: 0.12 mg/kg/injection, schedule: Q01DX009 (ip), vehicle: saline with Tween-80) 150 % of control; (dose: 0.2 mg/kg/injection, schedule: Q04DX003 (ip), vehicle: saline with Tween-80) 100 % of control; (dose: 0.25 mg/kg/injection, schedule: Q01DX009 (ip), vehicle: saline with Tween-80) 159 % of control; (dose: 0.3 mg/kg/injection, schedule: Q04DX003 (ip), vehicle: saline with Tween-80) 112 % of control; (dose: 0.5 mg/kg/injection, schedule: Q01DX009 (ip), vehicle: saline with Tween-80) 168 % of control. Moreover, the T/C by setting is: (dose: 0.5 mg/kg/injection, schedule: Q04DX003 (ip), vehicle: saline with Tween-80) 112 % of control; (dose: 0.8 mg/kg/injection, schedule: Q04DX003 (ip), vehicle: saline with Tween-80) 154 % of control; (dose: 1.0 mg/kg/injection, schedule: Q04DX003 (ip), vehicle: saline with Tween-80) 163 % of control; (dose: 1.3 mg/kg/injection, schedule: Q04DX003 (ip), vehicle: saline with Tween-80) 159 % of control; (dose: 2.0 mg/kg/injection, schedule: Q01DX009 (ip), vehicle: saline with Tween-80) 230 % of control; (dose: 2.0 mg/kg/injection, schedule: Q04DX003 (ip), vehicle: saline with Tween-80) 168 % of control and 172 % of control. The T/C (dose: 3.0 mg/kg/injection, schedule: Q04DX003 (ip), vehicle: saline with Tween-80) was 200 % of control; the T/C (dose: 3.4 mg/kg/injection, schedule: Q04DX003 (ip), vehicle: saline with Tween-80) was 150 % of control; the T/C (dose: 4.5 mg/kg/injection, schedule: Q04DX003 (ip), vehicle: saline with Tween-80) is 222 % of control; the T/C (dose: 5.2 mg/kg/injection, schedule: Q04DX003 (ip), vehicle: saline with Tween-80) was 154 % of control; the T/C (dose: 5.5 mg/kg/injection, schedule: Q01DX009 (ip), vehicle: saline with Tween-80) is 230 % of control; the T/C (dose: 8.0 mg/kg/injection, schedule: Q01DX009 (ip), vehicle: saline with Tween-80) was 230 % of control. Further, the T/C runs as follows: (dose: 8.0 mg/kg/injection, schedule: Q04DX003 (ip), vehicle: saline with Tween-80) 195 % of control; (dose: 12.0 mg/kg/injection, schedule: Q01DX009 (ip), vehicle: saline with Tween-80) 115 % of control; (dose: 27.0 mg/kg/injection, schedule: Q04DX003 (ip), vehicle: saline with Tween-80) 272 % of control (2×) and 207 % of control; under setting [1], 157 % of control; (dose: 60.0 mg/kg/injection, schedule: Q04DX003 (ip), vehicle: saline with Tween-80) 119 % of control.

`CCN(CC)Cc1cc(Nc2ccnc3cc(Cl)ccc23)cc(-c2ccc(Cl)cc2)c1O`: the T/C was 110 % of control (dose: 50.0 mg/kg/injection, schedule: Q01DX009 (ip), vehicle: saline with Tween-80); 102 % of control (dose: 100.0 mg/kg/injection, schedule: Q01DX009 (ip), vehicle: saline with Tween-80); 102 % of control (dose: 200.0 mg/kg/injection, schedule: Q01DX009 (ip), vehicle: saline with Tween-80).

In the case of `CC(C)(C)OC(=O)NC(CCC(=O)O)(Cc1ccccc1)C(=O)NC(CCC(=O)O)(Cc1ccccc1)C(=O)OCc1ccccc1` (centres undefined), the T/C (dose: 200.0 mg/kg/injection, schedule: Q01DX005 (ip), vehicle: saline with Tween-80) was 90 % of control.

Take `COc1ccc2c3c1OC1C(Oc4nnnn4-c4ccccc4)C=CC4C(C2)N(C)CCC341` (centres undefined): the T/C is, setting by setting: under setting [2], 105 % of control; (dose: 25.0 mg/kg/injection, schedule: Q04DX003 (ip), vehicle: saline) 113 % of control; (dose: 50.0 mg/kg/injection, schedule: Q04DX003 (ip), vehicle: saline) 99 % of control; under setting [3], 103 % of control; under setting [4], 103 % of control; under setting [5], 99 % of control.

For the compound `O=c1oc(/C=C/c2ccccc2)nc2cc(Cl)ccc12`, the T/C by setting is: (dose: 100.0 mg/kg/injection, schedule: Q04DX003 (ip), vehicle: saline with Tween-80) 100 % of control; (dose: 200.0 mg/kg/injection, schedule: Q04DX003 (ip), vehicle: saline with Tween-80) 109 % of control; (dose: 400.0 mg/kg/injection, schedule: Q04DX003 (ip), vehicle: saline with Tween-80) 100 % of control.

For `O=C1CSC(=S)N1c1ccco1`, the T/C (dose: 50.0 mg/kg/injection, schedule: Q01DX001 (ip), vehicle: Klucel (hydroxypropylcellulose) (HPC)) is 100 % of control; the T/C (dose: 100.0 mg/kg/injection, schedule: Q01DX001 (ip), vehicle: Klucel (hydroxypropylcellulose) (HPC)) is 95 % of control; the T/C under setting [3] was 104 % of control; the T/C (dose: 200.0 mg/kg/injection, schedule: Q01DX001 (ip), vehicle: Klucel (hydroxypropylcellulose) (HPC)) was 95 % of control; the T/C under setting [4] is 100 % of control; the T/C under setting [5] is 100 % of control.

Turning to `O=C1C(Cl)=C(Cl)C(=O)C2=C1C1c3ccccc3C2c2ccccc21`, the T/C is 115 % of control (dose: 100.0 mg/kg/injection, schedule: Q01DX009 (ip), vehicle: Klucel (hydroxypropylcellulose) (HPC)); 120 % of control (dose: 200.0 mg/kg/injection, schedule: Q01DX009 (ip), vehicle: Klucel (hydroxypropylcellulose) (HPC)); 109 % of control (dose: 200.0 mg/kg/injection, schedule: Q04DX003 (ip), vehicle: saline sonified); 105 % of control (dose: 400.0 mg/kg/injection, schedule: Q01DX009 (ip), vehicle: Klucel (hydroxypropylcellulose) (HPC)); 104 % of control (dose: 400.0 mg/kg/injection, schedule: Q04DX003 (ip), vehicle: saline sonified).

For the compound `O=[N+]([O-])CC(OCCO)C(Cl)(Cl)Cl` (centres undefined), the T/C is 95 % of control (dose: 3.12 mg/kg/injection, schedule: Q04DX003 (ip), vehicle: saline); 110 % of control (dose: 6.25 mg/kg/injection, schedule: Q01DX009 (ip), vehicle: acetone); 100 % of control (dose: 6.25 mg/kg/injection, schedule: Q04DX003 (ip), vehicle: saline); 89 % of control (dose: 12.5 mg/kg/injection, schedule: Q01DX009 (ip), vehicle: acetone); 95 % of control under setting [2]; 118 % of control (dose: 18.0 mg/kg/injection, schedule: Q04DX003 (ip), vehicle: saline with Tween-80). For the same compound, the T/C reads like this: (dose: 28.0 mg/kg/injection, schedule: Q04DX003 (ip), vehicle: saline with Tween-80) 90 % of control; under setting [1], 86 % of control.

`Nc1ncnc2c1ncn2C1OC(CO)C(O)C1O.[Cl][Pt][Cl]` (centres undefined): the T/C reads like this: (dose: 100.0 mg/kg/injection, schedule: Q01DX009 (ip), vehicle: water) 115 % of control; (dose: 200.0 mg/kg/injection, schedule: Q01DX009 (ip), vehicle: water) 102 % of control; (dose: 400.0 mg/kg/injection, schedule: Q01DX009 (ip), vehicle: water) 96 % of control.

Regarding `Cc1cc(Cl)ccc1NC(=O)c1ccc(Cl)cc1`, the T/C by setting is: (dose: 75.0 mg/kg/injection, schedule: Q01DX009 (ip), vehicle: Klucel (hydroxypropylcellulose) (HPC)) 113 % of control; (dose: 150.0 mg/kg/injection, schedule: Q01DX009 (ip), vehicle: Klucel (hydroxypropylcellulose) (HPC)) 95 % of control; (dose: 300.0 mg/kg/injection, schedule: Q01DX009 (ip), vehicle: Klucel (hydroxypropylcellulose) (HPC)) 100 % of control.

As for `COC(=O)C12OCC34C(CC5=C(C)C(=O)C(O)=CC5(C)C3C(O)C1O)OC(=O)C(OC(=O)c1ccccc1)C24` (centres undefined), the T/C was 111 % of control (dose: 0.04 mg/kg/injection, schedule: Q01DX009 (ip), vehicle: saline + alcohol) and 100 % of control (dose: 4.0 mg/kg/injection, schedule: Q01DX009 (ip), vehicle: saline + alcohol).

`CCCCCCCCCCCCCCCCCCSc1ccccc1`: the T/C runs as follows: (dose: 6.25 mg/kg/injection, schedule: Q04DX003 (ip), vehicle: saline sonified) 110 % of control; (dose: 12.5 mg/kg/injection, schedule: Q04DX003 (ip), vehicle: saline sonified) 100 % of control; (dose: 25.0 mg/kg/injection, schedule: Q04DX003 (ip), vehicle: saline sonified) 110 % of control.

As to `Nc1ccn(C2CC(O)C(CO)O2)c(=O)n1` (centres undefined), the T/C by setting is: (dose: 2.3 mg/kg/injection, schedule: Q01DX009 (ip), vehicle: water) 117 % of control; (dose: 9.37 mg/kg/injection, schedule: Q01DX009 (ip), vehicle: water) 117 % of control; (dose: 18.75 mg/kg/injection, schedule: Q01DX009 (ip), vehicle: water) 110 % of control.
